Results reported in patent publication US20200029601A1, “PHENYLACRYLIC ACID SOLUTION FOR BROAD SPECTRUM ANTIMICROBIAL APPLICATIONS FOR FOODSTUFFS” (KLF LABS LLC, priority 2018, published 2020).
Like-named read-outs stand apart in the source and are kept apart here.

Experiments:
Saccharomyces cerevisiae [1] = assay: Yeast growth in sterile model beverage (Experimental Test 5); format: cell-based; settings: 300 ppm; model beverage at 4° C.; 72 hours
Protocol: Application experiments were set up using a model beverage. The formulations were tested against Saccharomyces cerevisiae, a yeast well recognized for its beverage spoiling quality. A sterile model beverage was prepared using the formulation indicated in Table 19, with an initial inoculation quantity of 10^4 cells/mL of beverage. […] The OD 660 of each sample was measured 72 hours after initial inoculation using an 8543 Spectrophotometer and the data was compiled using excel, as depicted in Table 20.

Candida parapsilosis = assay: microbe, parasite or virus in culture; settings: Lodderomyces parapsilosis, 48 h
Protocol: (§1) The media was then sterilized by steam autoclaving the solution for 15 minutes at 121° C. and the media was placed into 3 96 cell plates and pH using either 0.1N HCl or 0.1N NaOH to pH values of 3.1, 5.6, 6.0, 6.5, 7.0, and 7.5.
(§2) Three exemplary embodiment solutions were added and serial diluted into a series of treatment wells and 0.5 McFarland Standard's worth of yeast cells were added to each well. The plates were incubated at 32° C. for 48 hours and then the OD was read at 600 nm. The percent inhibition was graphed as a percentage of the following formula indicated in Equation 1.

Saccharomyces cerevisiae [2] = assay: microbe, parasite or virus in culture; settings: 48 h
Protocol: as §1, §2

Zygosaccharomyces bailii = assay: microbe, parasite or virus in culture; settings: 48 h
Protocol: as §1, §2

Zygosaccharomyces rouxii = assay: microbe, parasite or virus in culture; settings: 48 h
Protocol: as §1, §2

Escherichia coli = settings: 500 ppm; pH 4.5; 24 hours growth, then plated
Protocol: (§3) In conducting tests with the model organisms, agar medium for 1 L plates were first prepared having the composition indicated in Table 16.
(§4) In connection with this particular experiment, the pH of the samples was adjusted to a pH value of 4.5 by adding a small amount of 0.1 M HCl. The samples were then sterilized with steam at 121° C. for about 15 minutes. The formulations were allowed to cool to 70° F., after which a sample of 10^6 cells of an aforementioned microorganism, as measured using the optical density of the cells, was applied to 1 mL of the individual solutions. Afterwards, samples were allowed to grow for 24 hours. The solutions were diluted one hundred-fold and 10 microliters were applied to a LB media plate and outgrown for 24 additional hours.

[3] = test system: Lactobacillus acidophilus; settings: 500 ppm; pH 4.5; 24 hours growth, then plated
Protocol: as §3, §4

Saccharomyces cerevisiae [4] = settings: 1000 ppm (positive control); pH 4.0; 72 hours
Protocol: Each of the formulations presented above was added to each of the three 20 mL samples of the agar medium.
In connection with this particular experiment, the pH of the samples was adjusted to a pH value of 4.0 by adding a small amount of 0.1 M HCl. The samples were then sterilized with steam at 121° C. for 15 minutes. In one embodiment, 1 mL sample formulations were poured into a 1.5 mL sterile microcentrifuge tube and inoculated with ˜10,000 Saccharomyces cerevisiae cells (e.g., yeast cells). The cells were allowed to grow outwards for 72 hours and then the endpoint concentration of cell growth was determined spectrophotometrically at 660 nm. In samples where cell growth was generally absent cell samples were diluted and counted on a yeast extract peptone dextrose plate. Controls to account for the presence of binder in the absorbance reading were subtracted out in the reporting of the final absorbance. The negative control was diluted twenty times prior to reading the Abs 660 nm.

[5] = pH 3.1, read-out: Percent inhibition
[6] = pH 5.6, read-out: Percent inhibition
[7] = pH 6, read-out: Percent inhibition
[8] = pH 6.5, read-out: Percent inhibition
[9] = pH 7, read-out: Percent inhibition
[10] = pH 7.5, read-out: Percent inhibition

O=C(O)C=Cc1ccccc1 [Phenylacrylic Acid, 3-phenyl-2-propenoic acid]
OD 660 nm (Saccharomyces cerevisiae [1]): 0.51

C/C=C/C=C/C(=O)[O-].[K+] [Potassium Sorbate]
inhibition at 130 ppm (Candida parapsilosis; [5]): 0.9%
inhibition at 250 ppm (Candida parapsilosis; [5]): 5.2%
inhibition at 500 ppm (Candida parapsilosis; [5]): 16.2%
inhibition at 1000 ppm (Candida parapsilosis; [5]): 13.5%
inhibition at 2000 ppm (Candida parapsilosis; [5]): 6.5%
inhibition at 130 ppm (Candida parapsilosis; [6]): 9.5%
inhibition at 250 ppm (Candida parapsilosis; [6]): 12.3%
inhibition at 500 ppm (Candida parapsilosis; [6]): 28.7%
inhibition at 1000 ppm (Candida parapsilosis; [6]): 32.8%
inhibition at 2000 ppm (Candida parapsilosis; [6]): 42.4%
inhibition at 130 ppm (Candida parapsilosis; [7]): 5%
inhibition at 250 ppm (Candida parapsilosis; [7]): 12.8%
inhibition at 500 ppm (Candida parapsilosis; [7]): 7.6%
inhibition at 1000 ppm (Candida parapsilosis; [7]): 4.6%
inhibition at 2000 ppm (Candida parapsilosis; [7]): 2.8%
inhibition at 130 ppm (Candida parapsilosis; [8]): 3.3%
inhibition at 250 ppm (Candida parapsilosis; [8]): 1.1%
inhibition at 500 ppm (Candida parapsilosis; [8]): 0%
inhibition at 1000 ppm (Candida parapsilosis; [8]): 0%
inhibition at 2000 ppm (Candida parapsilosis; [8]): 0.8%
inhibition at 130 ppm (Candida parapsilosis; [9]): 1.7%
inhibition at 250 ppm (Candida parapsilosis; [9]): 8.8%
inhibition at 500 ppm (Candida parapsilosis; [9]): 15.9%
inhibition at 1000 ppm (Candida parapsilosis; [9]): 8.3%
inhibition at 2000 ppm (Candida parapsilosis; [9]): 8.4%
inhibition at 130 ppm (Candida parapsilosis; [10]): 6.2%
inhibition at 250 ppm (Candida parapsilosis; [10]): 0%
inhibition at 500 ppm (Candida parapsilosis; [10]): 0%
inhibition at 1000 ppm (Candida parapsilosis; [10]): 0%
inhibition at 2000 ppm (Candida parapsilosis; [10]): 7.4%
inhibition at 130 ppm (Saccharomyces cerevisiae [2]; [5]): 99.6%
inhibition at 250 ppm (Saccharomyces cerevisiae [2]; [5]): 99.4%
inhibition at 500 ppm (Saccharomyces cerevisiae [2]; [5]): 99.7%
inhibition at 1000 ppm (Saccharomyces cerevisiae [2]; [5]): 99.8%
inhibition at 2000 ppm (Saccharomyces cerevisiae [2]; [5]): 99.3%
inhibition at 130 ppm (Saccharomyces cerevisiae [2]; [6]): 84.9%
inhibition at 250 ppm (Saccharomyces cerevisiae [2]; [6]): 95.3%
inhibition at 500 ppm (Saccharomyces cerevisiae [2]; [6]): 98.1%
inhibition at 1000 ppm (Saccharomyces cerevisiae [2]; [6]): 99%
inhibition at 2000 ppm (Saccharomyces cerevisiae [2]; [6]): 99.4%
inhibition at 130 ppm (Saccharomyces cerevisiae [2]; [7]): 9.9%
inhibition at 250 ppm (Saccharomyces cerevisiae [2]; [7]): 25%
inhibition at 500 ppm (Saccharomyces cerevisiae [2]; [7]): 50.3%
inhibition at 1000 ppm (Saccharomyces cerevisiae [2]; [7]): 62%
inhibition at 2000 ppm (Saccharomyces cerevisiae [2]; [7]): 76.2%
inhibition at 130 ppm (Saccharomyces cerevisiae [2]; [8]): 17.7%
inhibition at 250 ppm (Saccharomyces cerevisiae [2]; [8]): 28.2%
inhibition at 500 ppm (Saccharomyces cerevisiae [2]; [8]): 48.1%
inhibition at 1000 ppm (Saccharomyces cerevisiae [2]; [8]): 60.6%
inhibition at 2000 ppm (Saccharomyces cerevisiae [2]; [8]): 84.6%
inhibition at 130 ppm (Saccharomyces cerevisiae [2]; [9]): 22%
inhibition at 250 ppm (Saccharomyces cerevisiae [2]; [9]): 37.9%
inhibition at 500 ppm (Saccharomyces cerevisiae [2]; [9]): 53.2%
inhibition at 1000 ppm (Saccharomyces cerevisiae [2]; [9]): 69%
inhibition at 2000 ppm (Saccharomyces cerevisiae [2]; [9]): 84.9%
inhibition at 130 ppm (Saccharomyces cerevisiae [2]; [10]): 19.4%
inhibition at 250 ppm (Saccharomyces cerevisiae [2]; [10]): 44.9%
inhibition at 500 ppm (Saccharomyces cerevisiae [2]; [10]): 55.8%
inhibition at 1000 ppm (Saccharomyces cerevisiae [2]; [10]): 73.6%
inhibition at 2000 ppm (Saccharomyces cerevisiae [2]; [10]): 72.1%
inhibition at 130 ppm (Zygosaccharomyces bailii; [5]): 91.9%
inhibition at 250 ppm (Zygosaccharomyces bailii; [5]): 96.5%
inhibition at 500 ppm (Zygosaccharomyces bailii; [5]): 99.1%
inhibition at 1000 ppm (Zygosaccharomyces bailii; [5]): 99.7%
inhibition at 2000 ppm (Zygosaccharomyces bailii; [5]): 100%
inhibition at 130 ppm (Zygosaccharomyces bailii; [6]): 70.4%
inhibition at 250 ppm (Zygosaccharomyces bailii; [6]): 86.7%
inhibition at 500 ppm (Zygosaccharomyces bailii; [6]): 95.6%
inhibition at 1000 ppm (Zygosaccharomyces bailii; [6]): 99.7%
inhibition at 2000 ppm (Zygosaccharomyces bailii; [6]): 99.8%
inhibition at 130 ppm (Zygosaccharomyces bailii; [7]): 0%
inhibition at 250 ppm (Zygosaccharomyces bailii; [7]): 0%
inhibition at 500 ppm (Zygosaccharomyces bailii; [7]): 0%
inhibition at 1000 ppm (Zygosaccharomyces bailii; [7]): 1.8%
inhibition at 2000 ppm (Zygosaccharomyces bailii; [7]): 3%
inhibition at 130 ppm (Zygosaccharomyces bailii; [8]): 0%
inhibition at 250 ppm (Zygosaccharomyces bailii; [8]): 0%
inhibition at 500 ppm (Zygosaccharomyces bailii; [8]): 0%
inhibition at 1000 ppm (Zygosaccharomyces bailii; [8]): 0%
inhibition at 2000 ppm (Zygosaccharomyces bailii; [8]): 20%
inhibition at 130 ppm (Zygosaccharomyces bailii; [9]): 0%
inhibition at 250 ppm (Zygosaccharomyces bailii; [9]): 0%
inhibition at 500 ppm (Zygosaccharomyces bailii; [9]): 0%
inhibition at 1000 ppm (Zygosaccharomyces bailii; [9]): 0%
inhibition at 2000 ppm (Zygosaccharomyces bailii; [9]): 16%
inhibition at 130 ppm (Zygosaccharomyces bailii; [10]): 9.7%
inhibition at 250 ppm (Zygosaccharomyces bailii; [10]): 0%
inhibition at 500 ppm (Zygosaccharomyces bailii; [10]): 0%
inhibition at 1000 ppm (Zygosaccharomyces bailii; [10]): 0%
inhibition at 2000 ppm (Zygosaccharomyces bailii; [10]): 0.3%
inhibition at 130 ppm (Zygosaccharomyces rouxii; [5]): 39.3%
inhibition at 250 ppm (Zygosaccharomyces rouxii; [5]): 66.7%
inhibition at 500 ppm (Zygosaccharomyces rouxii; [5]): 80.4%
inhibition at 1000 ppm (Zygosaccharomyces rouxii; [5]): 88.6%
inhibition at 2000 ppm (Zygosaccharomyces rouxii; [5]): 84.2%
inhibition at 130 ppm (Zygosaccharomyces rouxii; [6]): 93.7%
inhibition at 250 ppm (Zygosaccharomyces rouxii; [6]): 95.9%
inhibition at 500 ppm (Zygosaccharomyces rouxii; [6]): 37.7%
inhibition at 1000 ppm (Zygosaccharomyces rouxii; [6]): 99.3%
inhibition at 2000 ppm (Zygosaccharomyces rouxii; [6]): 100%
inhibition at 130 ppm (Zygosaccharomyces rouxii; [7]): 0%
inhibition at 250 ppm (Zygosaccharomyces rouxii; [7]): 0%
inhibition at 500 ppm (Zygosaccharomyces rouxii; [7]): 3.4%
inhibition at 1000 ppm (Zygosaccharomyces rouxii; [7]): 17.4%
inhibition at 2000 ppm (Zygosaccharomyces rouxii; [7]): 63.3%
inhibition at 130 ppm (Zygosaccharomyces rouxii; [8]): 19.7%
inhibition at 250 ppm (Zygosaccharomyces rouxii; [8]): 0%
inhibition at 500 ppm (Zygosaccharomyces rouxii; [8]): 6.7%
inhibition at 1000 ppm (Zygosaccharomyces rouxii; [8]): 65.6%
inhibition at 2000 ppm (Zygosaccharomyces rouxii; [8]): 90.6%
inhibition at 130 ppm (Zygosaccharomyces rouxii; [9]): 4.7%
inhibition at 250 ppm (Zygosaccharomyces rouxii; [9]): 9.2%
inhibition at 500 ppm (Zygosaccharomyces rouxii; [9]): 62.7%
inhibition at 1000 ppm (Zygosaccharomyces rouxii; [9]): 86.2%
inhibition at 2000 ppm (Zygosaccharomyces rouxii; [9]): 89.3%
inhibition at 130 ppm (Zygosaccharomyces rouxii; [10]): 7.2%
inhibition at 250 ppm (Zygosaccharomyces rouxii; [10]): 16.5%
inhibition at 500 ppm (Zygosaccharomyces rouxii; [10]): 48.6%
inhibition at 1000 ppm (Zygosaccharomyces rouxii; [10]): 74.9%
inhibition at 2000 ppm (Zygosaccharomyces rouxii; [10]): 95.2%
Escherichia coli cell count (Escherichia coli): 5.49 Log(CFU/mL)
Lactobacillus acidophilus cell count [3]: <2 Log(CFU/mL)
Abs 660 nm after 3 days (Saccharomyces cerevisiae [4]): 0.0396 ± 0.005
Cell Count after 3 days (Saccharomyces cerevisiae [4]): 5.3 × 10^5 CFU/mL
